Patent US20190262330A1, “Method of Treating Hepatocellular Carcinoma Using N-(4-(6,7-dimethoxyquinolin-4-yloxy)phenyl)-N′-(4-fluorophenyl)cyclopropane-1,1-dicarboxamide, (2S)-hydroxybutanedioate” (Exelixis, Inc., priority 2017, published 2019)

Tests used:
CYP1A2 = CYP1A2 (Homo sapiens, UniProt P05177); assay: In vitro CYP inhibition; assay type: in vitro ADME
FLT-3 = FLT-3 (Homo sapiens, UniProt P36888); assay: In vitro biochemical and/or cellular kinase assays
[1] = test system: advanced hepatocellular carcinoma; conditions: from study entry; cited from earlier work
CYP2A6 = CYP2A6 (Homo sapiens, UniProt P11509); assay: In vitro metabolic pathways; assay type: in vitro ADME
CYP3A4 [2] = assay: Drug interaction with strong CYP3A4 inducer rifampin; assay type: in vivo, human; conditions: rifampin 600 mg daily for 31 days, healthy subjects
CYP3A4 [3] = molecular target: T1, CYP3A4 (Homo sapiens, UniProt P08684); assay: In vitro metabolic pathways; assay type: in vitro ADME
VEGFR-3 = VEGFR-3 (Homo sapiens, UniProt P35916); assay: In vitro biochemical and/or cellular kinase assays
[4] = test system: previously treated advanced hepatocellular carcinoma; assay: Phase 3 CELESTIAL trial, efficacy (overall survival, progression-free survival, objective response); assay type: in vivo, human
Text: Eligible patients were 18 years of age or older with a pathologic diagnosis of hepatocellular carcinoma not amenable to curative treatment and with Child-Pugh Class A liver function. […] Additional inclusion criteria included Eastern Cooperative Oncology Group (ECOG) performance status of 0 or 1, acceptable hematologic parameters, and adequate renal function.
Randomization was stratified by disease etiology (HBV virus [with or without HCV], HCV [without HBV], or other), geographic region (Asia or other), and the presence of extrahepatic spread of disease and/or macrovascular invasion (yes or no).
Treatment interruptions and dose reductions (to 40 mg and then to 20 mg) were utilized to manage adverse events. Patients received study treatment as long as they experienced clinical benefit as judged by the investigator or until they experienced unacceptable toxicity.
The inflation of type 1 error was controlled by Lan-DeMets O'Brien-Fleming alpha-spending function.
Secondary efficacy endpoints were progression-free survival, defined as the time from randomization to the earlier of radiographic progression or death due to any cause, and objective response rate. Tumor assessments were performed using computed tomography or magnetic resonance imaging at baseline and every 8 weeks after randomization until the later of 8 weeks after radiographic progression or treatment discontinuation. Tumor response and progression were assessed by the investigator using Response Evaluation Criteria In Solid Tumors (RECIST) version 1.1. Eisenhauer E A, Therasse P, Bogaerts J, et al. New response evaluation criteria in solid tumours: revised RECIST guideline (version 1.1). […] Safety was continuously evaluated, and the severity of adverse events was assessed by the investigator using the National Cancer Institute Common Terminology Criteria for Adverse Events, version 4. Progression-free survival was tested by stratified log-rank test; significance level 0.04. Overall response rate was tested by 2-sided Fisher's exact test; significance level Of 0.01.
Efficacy was analyzed in all randomized patients by the intent-to-treat principle. Safety was analyzed in all patients who received at least one dose of study treatment. […] Hazard ratios were estimated using Cox regression models. Hypothesis testing for objective response was done with the Cochran-Mantel-Haenszel method. All subgroup analyses of overall survival and progression-free survival were prespecified except for those based on extrahepatic spread of disease or macrovascular invasion as separate factors or sorafenib as the only prior therapy. For subgroup analyses, no adjustments were made for multiplicity, hazard ratios are unstratified, and confidence intervals are considered descriptive.
Patients could have received one other prior systemic therapy. The primary efficacy endpoint was overall survival (OS). Secondary efficacy endpoints were progression-free survival (PFS) and objective response rate (ORR), as assessed by investigator using RECIST 1.1. Tumor assessments were conducted every 8 weeks.

[5] = Excretion of 14C-cabozantinib radioactivity in healthy subjects; assay type: in vivo, human; conditions: 72 hour collection
Experimental: Approximately 81% of the total administered radioactivity was recovered within a 48-day collection period following a single 140 mg dose of an investigational ^14C-cabozantinib formulation in healthy subjects. Approximately 54% was recovered in feces and 27% in urine.

CYP2C19 [6] = assay: In vitro CYP induction; assay type: in vitro ADME
CYP3A4 [7] = molecular target: T1, CYP3A4; assay: In vitro CYP inhibition; assay type: in vitro ADME
CYP2C8 = CYP2C8 (Homo sapiens, UniProt P10632); assay: In vitro CYP inhibition; assay type: in vitro ADME
CYP2C19 [8] = molecular target: CYP2C19 (Homo sapiens, UniProt P33261); assay: In vitro CYP inhibition; assay type: in vitro ADME
[9] = subgroup whose only prior systemic therapy was sorafenib

T1 sequence (P08684 whole entry): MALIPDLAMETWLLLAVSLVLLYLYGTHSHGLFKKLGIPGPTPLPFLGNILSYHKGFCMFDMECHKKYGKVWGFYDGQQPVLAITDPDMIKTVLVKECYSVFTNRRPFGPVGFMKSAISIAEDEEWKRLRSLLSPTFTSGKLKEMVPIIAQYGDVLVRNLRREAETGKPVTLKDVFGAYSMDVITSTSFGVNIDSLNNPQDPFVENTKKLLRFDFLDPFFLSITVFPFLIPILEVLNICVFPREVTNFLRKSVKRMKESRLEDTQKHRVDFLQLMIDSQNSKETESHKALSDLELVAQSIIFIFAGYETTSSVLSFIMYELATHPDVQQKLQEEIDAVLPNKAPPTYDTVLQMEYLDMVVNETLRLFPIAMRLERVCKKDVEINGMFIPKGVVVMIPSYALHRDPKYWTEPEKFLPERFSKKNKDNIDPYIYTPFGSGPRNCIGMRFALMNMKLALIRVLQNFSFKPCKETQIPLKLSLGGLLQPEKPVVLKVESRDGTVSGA
Sequence of FLT-3 (P36888 27-993): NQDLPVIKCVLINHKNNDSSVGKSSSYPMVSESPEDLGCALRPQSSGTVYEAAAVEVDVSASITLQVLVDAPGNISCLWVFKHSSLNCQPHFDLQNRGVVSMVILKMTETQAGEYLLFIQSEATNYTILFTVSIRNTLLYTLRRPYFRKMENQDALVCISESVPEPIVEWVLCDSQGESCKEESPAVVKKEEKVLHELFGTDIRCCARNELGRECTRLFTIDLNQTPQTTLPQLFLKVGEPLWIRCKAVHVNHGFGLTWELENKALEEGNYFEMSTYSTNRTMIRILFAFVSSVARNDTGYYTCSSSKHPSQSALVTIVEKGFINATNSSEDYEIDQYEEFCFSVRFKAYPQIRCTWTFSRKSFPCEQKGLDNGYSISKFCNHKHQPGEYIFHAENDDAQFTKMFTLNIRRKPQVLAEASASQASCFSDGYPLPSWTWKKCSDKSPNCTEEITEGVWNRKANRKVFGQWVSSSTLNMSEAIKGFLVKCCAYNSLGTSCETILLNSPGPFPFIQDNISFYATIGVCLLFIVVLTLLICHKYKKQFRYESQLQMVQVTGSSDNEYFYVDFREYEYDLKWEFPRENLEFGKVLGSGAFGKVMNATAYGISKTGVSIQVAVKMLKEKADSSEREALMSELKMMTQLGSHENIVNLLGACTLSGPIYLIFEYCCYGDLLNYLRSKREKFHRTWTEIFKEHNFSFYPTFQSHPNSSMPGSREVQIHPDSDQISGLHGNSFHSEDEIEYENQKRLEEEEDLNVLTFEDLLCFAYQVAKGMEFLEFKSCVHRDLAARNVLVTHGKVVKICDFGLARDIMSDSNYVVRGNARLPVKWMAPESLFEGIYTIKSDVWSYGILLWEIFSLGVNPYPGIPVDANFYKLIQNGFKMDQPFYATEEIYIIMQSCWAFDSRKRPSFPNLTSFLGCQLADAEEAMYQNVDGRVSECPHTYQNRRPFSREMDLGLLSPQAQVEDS
Sequence of CYP2C8 (P10632 whole entry): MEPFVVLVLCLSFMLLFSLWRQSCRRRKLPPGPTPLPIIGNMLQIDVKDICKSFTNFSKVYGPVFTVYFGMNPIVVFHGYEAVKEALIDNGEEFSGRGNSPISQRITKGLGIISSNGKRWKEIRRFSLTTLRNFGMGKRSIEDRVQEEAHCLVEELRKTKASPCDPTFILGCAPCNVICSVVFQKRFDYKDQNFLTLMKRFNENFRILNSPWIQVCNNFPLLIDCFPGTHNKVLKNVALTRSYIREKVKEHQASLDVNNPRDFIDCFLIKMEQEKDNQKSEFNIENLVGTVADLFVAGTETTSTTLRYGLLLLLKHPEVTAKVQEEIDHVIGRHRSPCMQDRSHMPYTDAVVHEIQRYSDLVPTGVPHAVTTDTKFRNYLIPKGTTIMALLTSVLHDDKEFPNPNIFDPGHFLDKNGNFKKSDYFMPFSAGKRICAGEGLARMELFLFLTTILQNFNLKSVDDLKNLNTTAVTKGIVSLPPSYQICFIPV
Sequence of CYP2A6 (P11509 whole entry): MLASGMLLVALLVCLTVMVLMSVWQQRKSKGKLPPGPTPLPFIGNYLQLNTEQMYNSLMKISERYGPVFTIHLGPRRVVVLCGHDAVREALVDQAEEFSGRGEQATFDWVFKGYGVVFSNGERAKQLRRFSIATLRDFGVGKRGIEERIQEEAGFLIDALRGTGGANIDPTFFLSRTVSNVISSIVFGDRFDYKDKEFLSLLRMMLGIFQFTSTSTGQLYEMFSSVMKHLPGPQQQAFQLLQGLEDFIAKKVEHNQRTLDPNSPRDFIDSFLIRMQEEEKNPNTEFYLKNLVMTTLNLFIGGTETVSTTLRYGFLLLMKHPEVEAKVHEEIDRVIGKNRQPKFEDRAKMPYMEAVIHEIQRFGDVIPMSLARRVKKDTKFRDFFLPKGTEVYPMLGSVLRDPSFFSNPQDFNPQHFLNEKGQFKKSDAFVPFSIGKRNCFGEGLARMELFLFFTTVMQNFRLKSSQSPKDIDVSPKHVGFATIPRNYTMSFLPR
Sequence of CYP2C19 (Homo sapiens, UniProt P33261) (P33261 whole entry): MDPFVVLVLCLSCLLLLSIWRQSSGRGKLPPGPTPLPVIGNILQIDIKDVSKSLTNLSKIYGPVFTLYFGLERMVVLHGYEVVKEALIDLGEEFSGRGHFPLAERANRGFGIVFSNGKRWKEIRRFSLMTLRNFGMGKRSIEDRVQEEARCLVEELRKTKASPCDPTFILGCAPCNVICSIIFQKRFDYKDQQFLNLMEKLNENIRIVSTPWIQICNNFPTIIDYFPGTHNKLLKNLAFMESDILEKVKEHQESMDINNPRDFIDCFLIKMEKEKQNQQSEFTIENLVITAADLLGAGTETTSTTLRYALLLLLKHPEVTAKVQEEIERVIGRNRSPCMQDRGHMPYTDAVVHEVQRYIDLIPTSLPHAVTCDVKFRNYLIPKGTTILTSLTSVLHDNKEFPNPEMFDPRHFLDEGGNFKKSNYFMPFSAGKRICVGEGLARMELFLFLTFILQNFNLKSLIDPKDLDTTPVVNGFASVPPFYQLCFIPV
Sequence of CYP1A2 (P05177 whole entry): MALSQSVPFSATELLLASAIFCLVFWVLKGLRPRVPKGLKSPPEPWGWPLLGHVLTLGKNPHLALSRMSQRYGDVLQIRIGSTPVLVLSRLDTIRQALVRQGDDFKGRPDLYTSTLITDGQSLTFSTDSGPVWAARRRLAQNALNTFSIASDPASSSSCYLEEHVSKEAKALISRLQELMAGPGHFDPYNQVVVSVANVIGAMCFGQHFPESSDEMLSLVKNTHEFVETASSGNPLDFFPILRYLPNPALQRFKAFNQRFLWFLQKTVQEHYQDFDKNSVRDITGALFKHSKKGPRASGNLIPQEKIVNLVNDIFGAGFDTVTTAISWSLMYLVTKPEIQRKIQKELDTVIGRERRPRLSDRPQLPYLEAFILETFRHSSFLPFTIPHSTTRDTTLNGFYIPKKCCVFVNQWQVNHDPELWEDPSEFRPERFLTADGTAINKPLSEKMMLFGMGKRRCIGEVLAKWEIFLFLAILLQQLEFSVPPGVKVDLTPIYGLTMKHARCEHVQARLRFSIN
Sequence of VEGFR-3 (P35916 25-1363): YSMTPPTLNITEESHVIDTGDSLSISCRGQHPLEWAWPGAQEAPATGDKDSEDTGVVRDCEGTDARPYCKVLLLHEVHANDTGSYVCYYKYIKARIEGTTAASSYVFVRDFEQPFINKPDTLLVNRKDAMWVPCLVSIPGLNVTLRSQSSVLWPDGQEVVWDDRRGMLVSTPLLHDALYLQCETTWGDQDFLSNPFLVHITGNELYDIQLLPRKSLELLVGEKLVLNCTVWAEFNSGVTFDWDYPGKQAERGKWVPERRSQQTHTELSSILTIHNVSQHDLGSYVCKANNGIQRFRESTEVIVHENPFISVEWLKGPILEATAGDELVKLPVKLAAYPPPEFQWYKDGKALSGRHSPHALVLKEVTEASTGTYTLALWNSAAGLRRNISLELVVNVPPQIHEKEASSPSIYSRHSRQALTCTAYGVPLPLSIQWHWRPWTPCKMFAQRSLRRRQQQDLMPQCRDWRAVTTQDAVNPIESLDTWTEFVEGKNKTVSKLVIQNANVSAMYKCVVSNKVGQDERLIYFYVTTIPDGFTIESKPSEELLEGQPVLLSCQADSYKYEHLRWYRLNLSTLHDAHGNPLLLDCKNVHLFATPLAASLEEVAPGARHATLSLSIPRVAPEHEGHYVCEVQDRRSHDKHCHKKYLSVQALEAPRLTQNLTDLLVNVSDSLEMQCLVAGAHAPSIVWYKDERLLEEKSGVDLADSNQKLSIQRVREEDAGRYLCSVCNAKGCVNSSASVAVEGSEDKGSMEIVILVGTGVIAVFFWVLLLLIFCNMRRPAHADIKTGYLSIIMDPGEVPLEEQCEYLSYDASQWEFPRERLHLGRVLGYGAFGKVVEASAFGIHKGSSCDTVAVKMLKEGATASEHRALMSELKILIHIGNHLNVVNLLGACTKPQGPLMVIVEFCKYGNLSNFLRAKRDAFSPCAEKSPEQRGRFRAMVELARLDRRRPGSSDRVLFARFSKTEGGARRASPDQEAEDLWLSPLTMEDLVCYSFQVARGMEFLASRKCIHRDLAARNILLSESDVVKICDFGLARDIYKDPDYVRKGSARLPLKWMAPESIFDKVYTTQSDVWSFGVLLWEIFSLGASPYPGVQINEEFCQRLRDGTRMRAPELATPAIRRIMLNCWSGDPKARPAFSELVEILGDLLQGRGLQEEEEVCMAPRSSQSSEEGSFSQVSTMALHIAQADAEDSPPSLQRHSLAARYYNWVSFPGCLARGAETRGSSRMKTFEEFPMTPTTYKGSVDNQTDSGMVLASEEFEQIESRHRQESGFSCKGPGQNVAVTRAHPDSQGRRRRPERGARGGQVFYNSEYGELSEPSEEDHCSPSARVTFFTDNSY

COc1cc2nccc(Oc3ccc(NC(=O)C4(C(=O)Nc5ccc(F)cc5)CC4)cc3)c2cc1OC [cabozantinib]
Inhibition of CYP1A2 (CYP1A2): does not inhibit
Tyrosine kinase activity of FLT-3 (FLT-3): inhibits
Median overall survival [1]: 11.5 months
Median progression-free survival [1]: 5.2 months
Effect of inhibition of CYP2A6 on metabolite formation (CYP2A6): no effect
Decrease of single-dose plasma exposure (AUC0-inf) (CYP3A4 [2]): 77%
CYP3A4 substrate status (CYP3A4 [3]): substrate
Tyrosine kinase activity of VEGFR-3 (VEGFR-3): inhibits
Kaplan-Meier landmark estimate of % of patients alive (95% CI) ([4]; 6 months): 72 (67-76) %
Kaplan-Meier landmark estimate of % of patients alive (95% CI) ([4]; 12 months): 46 (41-50) %
Kaplan-Meier landmark estimate of % of patients alive (95% CI) ([4]; 18 months): 32 (27-37) %
Kaplan-Meier landmark estimate of % of patients alive (95% CI) ([4]; 24 months): 18 (14-22) %
Disease control (partial response or stable disease) ([4]; ITT): 64%
Median overall survival ([4]; ITT, second interim analysis, 60 mg once daily): 10.2 months
Objective response rate ([4]; RECIST 1.1, confirmed responses, ITT): 4%
Median progression-free survival ([4]; RECIST 1.1 per investigator, ITT): 5.2 months
Best overall response: complete response, n (%) ([4]; by investigator): 0
Best overall response: not evaluable or missing ([4]; by investigator): (15) %
Best overall response: partial response ([4]; by investigator): (4) %
Best overall response: progressive disease ([4]; by investigator): (21) %
Best overall response: stable disease ([4]; by investigator): (60) %
Improvement in progression-free survival vs placebo ([4]; in vivo): more than 3 months
Median overall survival [4, 9]: 11.3 months
Median progression-free survival [4, 9]: 5.5 months
Unchanged cabozantinib as share of total radioactivity in feces [5]: 43%
Induction of CYP2C19 (CYP2C19 [6]): does not induce
Effect on CYP3A4 pathway (CYP3A4 [7]): affected by cabozantinib in vitro
Inhibition of CYP2C8 (CYP2C8): inhibitor
Effect on CYP2C19 pathway (CYP2C19 [8]): affected by cabozantinib in vitro
